Data as given in patent US20130046257A1, “METHODS OF USING AGENTS THAT MODULATE CLAUDIN EXPRESSION” (priority 2010, published 2013).

Legend:
occludin mRNA = experiment: qPCR of occludin in PHK treated with ciglitazone; format: cell-based, human; details: CIG 5 μM, 24 h, PHK in high Calcium media (DMEM)
Experimental: (§1) PHK were differentiated in high Calcium media (DMEM) in the presence of CIG 5 μM in DMSO or media with equivalent amount of DMSO alone, for 24 h. Total RNA was extracted from PHK using the QlAshredder spin column (Qiagen) and RNeasy RNA isolation kits (Qiagen). The quality of total RNA samples (RNA Integrity Number, RIN) was assessed using an Agilent 2100 Bioanalyzer (Agilent Technologies, Palo Alto, Calif.).
(§2) qPCR was performed using the iScript™ cDNA Synthesis kit and iQ™ SYBER Green Supermix assay system (Bio-Rad Laboratories). All PCR amplifications were carried out in triplicate on an iQ5 Multicolor real-time PCR detection system (Bio-Rad). Primers were designed and synthesized by Integrated DNA Technologies. Relative gene expression was calculated by using the 2^−ΔΔCt method, as previously described. The normalized Ct value of each sample was calculated using GAPDH as an endogenous control gene.

CLDN1 mRNA = experiment: qPCR of CLDN1 in PHK treated with ciglitazone; format: cell-based, human; details: CIG 5 μM, 24 h, PHK in high Calcium media (DMEM)
Experimental: as §1, §2

[1] = test system: human cultured keratinocytes and reconstructed human epidermis; details: Kurasawa et al. 2009; cited from earlier work
human epidermis sheet = experiment: TEER of human epidermal sheets treated with sodium decanoate; format: cell-based; details: 1 mM, T0
Description: Epidermal sheets were obtained from discarded human skin using a weck blade (0.08 inch). Epidermal samples were mounted in an adapted snap-well system (Pierro et al., “Zonula Occludens Toxin Structure-Function Analysis, Identification of the Fragment Biologically Active on Tight Junctions and of the Zonulin Receptor Binding Domain,” J. Biol.

[2] = test system: primary human keratinocytes (PHK); experiment: Trans Epithelial Electric Resistance (TEER) of PHK; format: cell-based
Experimental: Human keratinocytes were isolated from neonatal foreskin. Poumay et al., “Basal Detachment of the Epidermis Using Dispase: Tissue Spatial Organization and Fate of Integrin Alpha 6 Beta 4 and Hemidesmosomes,” J. Invest. Dermatol. 102:111-7 (1994), which is hereby incorporated by reference in its entirety. PHK were cultured in Keratinocyte-SFM (Invitrogen/Gibco) with 1% Pen/Strep, 0.2% Amphotericin B (Invitrogen/Gibco). To differentiate PHK, cells were grown in DMEM (Invitrogen/Gibco) with 10% heat-inactivated fetal bovine serum (Invitrogen/Gibco) and 1% Pen/Strep, 0.2% Amphotericin B (Invitrogen/Gibco). For TJ modulation experiments, the following cytokines were added alone or in combination to the differentiation media; human IL-4 (50 ng/ml; R&D system) and IL-13 (50 ng/ml; R&D system).
PHK were plated at a subconfluent density of 2.5−3×10^4 cells/filter in Transwell insert and cultured in Keratinocyte-SFM media until confluent. TEER was measured using an EVOMX voltohmmeter (World Precision Instruments, Sarasota, Fla.). The resistance of cell-free filters was subtracted from each experimental value.
PHK were plated on glass coverslips at 2-3×10^5 cells/well in a 6-well plate or at 2-3×10^4 cells/filter in Transwell insert (Costar; PET membrane, 0.4 μm pore size, 6.5 mm insert) in Keratinocyte-SFM without antibiotics. The next day after plating, cells were transfected with claudin-1 specific or control (scrambled) siRNAs (Santa Cruz) using Lipofectamine™ 2000 transfection Reagent (Invitrogen). TEER and permeability experiments were conducted 48 hours after PHK were switched to differentiation media.
TEER was measured in PHK as described above. PHK were stimulated with S. aureus-derived peptidoglycan (PGN, 0.2-20 μg/ml, n=3-7) (FIG. 19A), Malp-2 (10-1000 ng/ml, n=3) (FIG. 19B), and Pam3CSK4 a TLR1/2 ligand (0.01-20 μg/ml, n=3-6) (FIG. 19C). Data are presented by analyzing the area under the TEER curve and normalized to the mean values for the control group (media alone)*p<0.05; **p<0.01.

occludin and ZO-1 = experiment: Expression of occludin and ZO-1 in PHK differentiated with Th2 cytokines; format: cell-based, human; details: PHK differentiated with cytokine
Experimental: (§3) Human keratinocytes were isolated from neonatal foreskin. Poumay et al., “Basal Detachment of the Epidermis Using Dispase: Tissue Spatial Organization and Fate of Integrin Alpha 6 Beta 4 and Hemidesmosomes,” J. Invest. Dermatol. 102:111-7 (1994), which is hereby incorporated by reference in its entirety. PHK were cultured in Keratinocyte-SFM (Invitrogen/Gibco) with 1% Pen/Strep, 0.2% Amphotericin B (Invitrogen/Gibco). To differentiate PHK, cells were grown in DMEM (Invitrogen/Gibco) with 10% heat-inactivated fetal bovine serum (Invitrogen/Gibco) and 1% Pen/Strep, 0.2% Amphotericin B (Invitrogen/Gibco). For TJ modulation experiments, the following cytokines were added alone or in combination to the differentiation media; human IL-4 (50 ng/ml; R&D system) and IL-13 (50 ng/ml; R&D system). […]
(§4) Previous studies have shown that claudin-1 expression in noncutaneous epithelial cells can be modulated by cytokines and growth factors. […] To test this possibility, PHK were differentiated in the presence or absence of Th2 cytokines, IL-4 and IL-13, and the expression of claudin-1, occludin and ZO-1 was evaluated. […]

claudin-1 = experiment: Western blot of claudin-1 in PHK differentiated with Th2 cytokines; format: cell-based, human; details: 48 hours, 50 ng/ml, n=3
Experimental: as §3, §4

[3] = test system: CLDN1, occludin, ZO-1 and CLDN23; experiment: Western blot of TJ proteins in PHK treated with PGN or TLR2 ligands; format: cell-based, human; details: 48 hr; PGN 0.2-20 μg/ml, Pam3CSK4 0.1-20 μg/ml, MALP2 10-1000 ng/ml
Experimental: PHFK were treated with PGN (0, 0.2, 2, 20 μg/ml) (as shown in FIG. 21A), Pam3CSK4 (0, 0.1, 1, 20 μg/ml) (as shown in FIG. 21B), MALP2 (0, 10, 100, 1000 ng/ml) for 48 hr and CLDN1 (as shown in FIG. 21C), occludin, ZO-1 and CLDN23 protein levels were detected from whole cell lysates by Western blot. Quantitative protein expression was determined by densitometry of bands and normalization to the housekeeping protein ([…]). (Representative blot of n=2-3 experiments).

Chain of claudin-1 (O95832 whole entry): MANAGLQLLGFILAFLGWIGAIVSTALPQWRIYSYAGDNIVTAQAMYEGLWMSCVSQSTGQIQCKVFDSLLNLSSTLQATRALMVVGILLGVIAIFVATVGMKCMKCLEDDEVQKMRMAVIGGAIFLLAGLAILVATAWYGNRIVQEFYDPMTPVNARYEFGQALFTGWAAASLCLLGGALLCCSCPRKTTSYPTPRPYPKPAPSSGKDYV

With CC1(COc2ccc(CC3SC(=O)NC3=O)cc2)CCCCC1 (stereo not shown) [ciglitazone] the “occludin mRNA, fold” value (occludin mRNA) was 2.0 fold, the “occludin mRNA, fold” value (occludin mRNA; listed as CIG) was 2 fold and the “CLDN1 mRNA, fold over DMSO alone” value (CLDN1 mRNA) was 1.7 fold.

For CCCCCCCCCC(=O)[O-].[Na+] [sodium decanoate], the paracellular permeability [1] is given as “increased paracellular permeability”, the transepithelial electrical resistance [1] is given as “decreased transepithelial electrical resistance” and the “TEER, dmem + SC_1” value (human epidermis sheet) is given as 1.00. For the same molecule, the “TEER, dmem + SC_2” value (human epidermis sheet) was 1.00 and the “TEER, mean SC” value (human epidermis sheet) was 1.00.

For IL-13: IL-13 (R&D system), Th2 cytokine, the “effect on TEER in dose response experiments” value ([2]; 0.5-100 ng/ml, PHK) was “slight increase in TEER”, the “effect on expression of occludin and ZO-1” value (occludin and ZO-1) was “no effect” and the “claudin-1 expression, fold over control” value (claudin-1) was 1.6±0.3 fold.

In the case of Malp-2 [reference compound], the TJ protein expressions [3] is reported as “increase TJ protein expressions” and the “tight junction function (area under the TEER curve normalized to media alone)” value ([2]; PGN 0.2-20 μg/ml, Malp-2 10-1000 ng/ml, Pam3CSK4 0.01-20 μg/ml) is reported as “increase tight junction function”.

With Pam3CSK4 the TJ protein expressions [3] was “increase TJ protein expressions”.

B1: IL-4: human IL-4 (R&D system), Th2 cytokine (protein, UniProt P05112 25-153, looked up)
Interleukin-4: HKCDITLQEIIKTLNSLTEQKTLCTELTVTDIFAASKNTTEKETFCRAATVLRQFYSHHEKDTRCLGATAQQFHRHKQLIRFLKRLDRNLWGLAGLNSCPVKEANQSTLENFLERLKTIMREKYSKCSS
For B1, the “effect on expression of occludin and ZO-1” value (occludin and ZO-1) was “no effect” and the “claudin-1 expression, fold over control” value (claudin-1) was 2.1±0.4 fold.
